# Test results: US11229685B2, “Fungal iron acquisition inhibitors and uses thereof” (priority 2013, dated 2022)
# Read-outs that look alike come from different tables or passages of the source.
# Legend:
# [1] = tested on: A. fumigatus strain dsRed; format: in vivo, Aspergillus fumigatus; conditions: C57BL/6 mice
# Description: Aspergillus and Fusarium strains were cultured as described above for 2-3 days, and fresh conidia were disrupted with a bacterial L-loop, harvested in 5 ml PBS, and filtered through sterile PBS soaked cotton gauze in a 10 ml syringe to obtain pure conidial suspensions. Conidia were quantified using a hemocytometer and adjusted in PBS to a final stock solution of 15-20,000 conidia/μl. Mice were anaesthetized with 1.25% 2,2,2-tri-bromoethanol in PBS. The corneal epithelium was abraded using a 30-gauge needle, through which a 2 μl injection containing conidia was released into the corneal stroma using a 33-gauge Hamilton syringe. Mice were examined daily under a stereomicroscope for corneal opacification, and quantified by image analysis using Metamorph software as described. At each time point, animals were euthanized by CO2 asphyxiation, and eyes were either placed in 10% formalin and embedded in paraffin, sectioned at 5 μm intervals and stained with periodic acid schiff and hematoxylin (PASH), or were placed in 1 ml of sterile PBS, homogenized and colony forming units (CFU) were quantified by manual count.
# For topical drug delivery, compounds were suspended in a commercial eye drop formulation (Alcon laboratories) or in PBS and 8 μl applied topically at 0 h and 6 h post-infection. Lactoferrin (1.25 mg/ml), deferiprone (10 mM), deferroxamine (10 mM), and simvastatin (4 mM) were purchased from Sigma Aldrich (St. Louis, Mo.). BEC (28 mM) was obtained from Cayman chemicals (Ann Arbor, Mich.). E. coli-expressed recombinant human lipocalin-1 was purified as described previously and applied topically at 2 mg/ml. Iron-dextran and deferroxamine were both purchased from Sigma and administered systemically to mice via daily I.P. injections of 5 mg starting at day −2 until mice were euthanized. All animals were bred under specific pathogen-free conditions and maintained according to institutional guidelines.
# Growth of the RFP expressing A. fumigatus strain in the cornea was detected using fluorescent microscopy and quantified by Metamorph image analysis. For assessment of fungal viability, whole eyes were homogenized under sterile conditions in 1 ml PBS, using the Mixer Mill MM300 (Retsch) at 33 Hz for 4 min. Subsequently, 100 μl aliquots were plated onto bacteriologic-grade sabouraud dextrose agar plates, incubated for 24 h at 37° C. (Aspergillus) or at 30° C. (Fusarium and Alternaria), and the number of CFUs was determined by direct counting.
# A. fumigatus = assay: In vitro human neutrophil:hyphae growth inhibition assay (calcofluor white fluorometry); format: cell-based, Aspergillus fumigatus; conditions: for growth of A. fumigatus: incubation in media for 16 h
# Description: (§1) FIGS. 8(A-G) illustrate a schematic drawing, images, and graphs showing the effect of topical simvastatin and deriprone on fungal infection. A. Statin targeting of fungal HMG-CoA reductase in siderophore biosynthesis. B, C. Effect of statins and iron chelators on growth of A. fumigatus and F. oxysporum in vitro. B. Simvastatin, lovastatin, deferiprone, or deferroxamine were added to growing cultures of A. fumigatus or C. F. oxysporum for 16 h, and hyphal growth was quantified by calcofluor white. D. Growth of A. fumigatus incubated with these compounds in the absence (black bars) or presence (gray bars) of human neutrophils by calcofluor white quantification (data are mean+/−SEM of five replicate wells) E. C57BL/6 mice were infected with A. fumigatus and at 0 and 6 h post-infection 13.4 μg of simvastatin (Sv), deferiprone (11.1 μg), deferroxamine (52.5 μg), Sv+ deferiprone, or Sv+ deferroxamine was applied topically to infected corneas and eyes were imaged at 24 h post-infection. F. Metamorph image analysis was used to quantify fungal dsRed expression and G. eyes were homogenized for CFU analysis. B-D: data are mean+/−SEM of five replicate wells; F, G: data points represent individual corneas.
# Human neutrophils were isolated from normal, healthy donors using Ficoll-Paque Plus (GE) density centrifugation as described. Isolated conidia from each A. fumigatus mutant were cultured in 200 μl SDA media (12,500/well) in black-wall 96 well plates with an optically clear bottom (CoStar 3720) until early germ tubes were observed (4-6 h). Wells were washed twice with sterile ddH2O and incubated 16 h with either RPMI media (+ Control), PBS (− Control), or a sublethal dose of human peripheral blood neutrophils in RPMI (0.5−1*10^5/well). At 16 h post-exposure, plates were washed once and stained with 50 μl calcofluor white stain (Binds chitin; Fluka 18909) for 5 min in the dark. Subsequently, plates were washed three times with ddH2O and quantified by fluorometry (360/440 nm; Synergy HT; Biotek).
# HMG CoA reductase is required for mevalonate production and can be targeted by statins resulting in decreased siderophore biosynthesis (FIG. 8A). To determine the effect of blocking this pathway on fungal growth, A. fumigatus and Fusarium oxysporum were incubated in media with simvastatin and lovastatin, or with the iron chelators, deferiprone and deferroxamine.
# F. oxysporum = assay: In vitro hyphal growth of F. oxysporum with statins and iron chelators (calcofluor white); format: cell-based, Fusarium oxysporum; conditions: incubation in media for 16 h; b217 says results similar to A. fumigatus (less growth with statins and deferiprone, not deferroxamine)
# Description: as §1, with “B-D: data are mean+/−SEM of five replicate wells; F, G: data points represent individual corneas.” left out
# Human neutrophils were isolated from normal, healthy donors using Ficoll-Paque Plus (GE) density centrifugation as described. […] Subsequently, plates were washed three times with ddH2O and quantified by fluorometry (360/440 nm; Synergy HT; Biotek). […]
# [2] = topical 16 μg/8 μl at 0 h and 6 h after infection, vs infected mice without exogenous Lcn-1
# [3] = plus human neutrophils, vs neutrophils alone
# [4] = topical 10.4 μg in 8 μl at 0 h and 6 h post-infection, 24 h post-infection, vs vehicle
compound,measurement,setting,value
"Lcn-1: E. coli-expressed recombinant human lipocalin-1, siderophore binding protein",CFU,[1]; [2],significantly less
same,fungal dsRed,[1]; [2],significantly less
same,A. fumigatus growth in the presence of neutrophils,"A. fumigatus; 4 μg/ml plus human neutrophils, vs neutrophils alone or Lcn-1 alone",significantly less than in the presence of neutrophils alone or with Lcn-1 alone
same,fungal growth,"A. fumigatus; 4 μg/ml, absence of neutrophils",significantly less
same,fungal growth,"A. fumigatus; 40 μg/ml, absence of neutrophils",significantly less
"Cc1c(O)c(=O)ccn1C [deferiprone, 1,2 dimethyl-3-hydroxypyrid-4-1]",fungal dsRed emission,"[1]; topical at 0 and 6 h post-infection (simvastatin 13.4 μg, deferiprone 11.1 μg, deferroxamine 52.5 μg), 24 h, vs vehicle-treated mice",significantly less
same,growth of A. fumigatus,A. fumigatus; no neutrophils,significantly less growth
same,A. fumigatus growth in the presence of human neutrophils,A. fumigatus; [3],inhibited
"N=C(NO)NCC[C@H](N)C(=O)O [nNOHA, N^ω-Hydroxy-nor-L-arginine]",fungal growth,"A. fumigatus; 100 μM, no neutrophils, vs RPMI alone",significantly lower than in RPMI alone
same,fungal growth when incubated with neutrophils,"A. fumigatus; plus human neutrophils, vs neutrophils alone, concentration not given",not significantly different from neutrophils alone
lactoferrin,CFU,[1]; [4],significantly less
same,fungal mass (dsRed),[1]; [4],significantly less
CC[C@H](C)C(=O)O[C@H]1C[C@@H](C)C=C2C=C[C@H](C)[C@H](CC[C@@H]3C[C@@H](O)CC(=O)O3)[C@H]21 [lovastatin],growth of Fusarium oxysporum,F. oxysporum,significantly less fungal cell growth
same,growth of A. fumigatus,A. fumigatus; no neutrophils,significantly less growth
same,A. fumigatus growth in the presence of human neutrophils,A. fumigatus; [3],inhibited
